Patent publication US9669003B2, “Use of flavone and flavanone derivatives in preparation of sedative and hypnotic drugs” (priority 2012, dated 2017)
Marks after values point to notes of the source that are not given here.

Assays:
Type in all cases: in vivo
[1] = test system: Kunming mice; experiment: Influence on hypnosis effect with pentobarbital sodium doses at the threshold (50 mg/kg i.p.); settings: pentobarbital sodium 50 mg/kg i.p. 60 min later, x ± s, n = 10
Method in brief: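 Kunming mice (10/group, half each sex) received compound in 0.5% CMC-Na intragastrically at 25, 50 or 100 mg/kg; 60 min later given 0.3% sodium pentobarbital 50 mg/kg i.p. Sleep latency and duration recorded by loss of righting reflex over 1 min; ANOVA and χ2 for sleep incidence.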

[2] = test system: Kunming mice; experiment: Influence on autonomic activity of normal mice (ZIL-2 mice autonomic activity meter, counts within 10 min); settings: intragastric, x ± s, n = 10; for Times of activities in 1 h after drug administration/10 min: 1 h after administration; for Times of activities in 2 h after drug administration/10 min: 2 h after administration; for Times of activities in 24 h after drug administration/10 min: 24 h after administration
Method in brief: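 Kunming mice (10 per group, half each sex) were dosed at 25, 50 or 100 mg/kg in 0.5% CMC-Na. Spontaneous activity counts over 10 min were recorded at 1 h, 2 h and 24 h post-dose. Groups were compared by ANOVA with Dunnett's test after Levene's check.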

[3] = test system: Kunming mice; experiment: Influence on hypnosis effect with pentobarbital sodium doses below the threshold (25 mg/kg i.p.); settings: pentobarbital sodium 25 mg/kg i.p. 60 min later, sleep observed in 30 min, n = 10
Method in brief: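 Kunming mice (10 per group, half female) given single oral doses of 25, 50 or 100 mg/kg in 0.5% CMC-Na; 60 min later pentobarbital sodium 25 mg/kg i.p. Sleep (righting reflex lost >1 min) scored within 30 min as percentage asleep, χ2 test.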

[4] = 25 mg/kg intragastric single dose
[5] = 50 mg/kg intragastric single dose
[6] = 100 mg/kg intragastric single dose
[7] = test drug 25 mg/kg intragastric single dose
[8] = test drug 50 mg/kg intragastric single dose
[9] = test drug 100 mg/kg intragastric single dose

CCCCCc1cc(-c2cc(=O)c3c(CC)cc(CCCCCCl)cc3o2)cc(O)c1Cc1ccccc1 [Example 19]
duration of sleep [1, 4]: 30.63 ± 20.25 min | time to sleep [1, 4]: 4.95 ± 2.00 min | duration of sleep [1, 5]: 37.67 ± 13.45 min | time to sleep [1, 5]: 4.57 ± 1.65 min | duration of sleep [1, 6]: 52.65 ± 20.15 min | time to sleep [1, 6]: 3.94 ± 1.23 min | Times of activities in 1 h after drug administration/10 min ([2]; 25 mg/kg): 282.2 ± 46.5 /10 min | Times of activities in 2 h after drug administration/10 min ([2]; 25 mg/kg): 265.0 ± 45.3 /10 min | Times of activities in 24 h after drug administration/10 min ([2]; 25 mg/kg): 302.8 ± 83.2 /10 min | Times of activities in 1 h after drug administration/10 min ([2]; 50 mg/kg): 234.7 ± 40.1 /10 min | Times of activities in 2 h after drug administration/10 min ([2]; 50 mg/kg): 243.5 ± 48.3 /10 min | Times of activities in 24 h after drug administration/10 min ([2]; 50 mg/kg): 306.2 ± 81.3 /10 min | Times of activities in 1 h after drug administration/10 min ([2]; 100 mg/kg): 229.6 ± 34.8 /10 min | Times of activities in 2 h after drug administration/10 min ([2]; 100 mg/kg): 172.5 ± 39.2 /10 min | Times of activities in 24 h after drug administration/10 min ([2]; 100 mg/kg): 287.8 ± 89.1 /10 min | Number of sleeping animals [3, 7]: 3 | rate of sleeping (%) [3, 7]: 30% | Number of sleeping animals [3, 8]: 6 | rate of sleeping (%) [3, 8]: 60** % | Number of sleeping animals [3, 9]: 7 | rate of sleeping (%) [3, 9]: 70** %

COc1ccc(-c2cc(=O)c3c(OC)cc(O)cc3o2)cc1OC [Example 5, 7-hydroxyl-5,3′,4′-trimethoxyl-flavone]
duration of sleep [1, 4]: 59.92 ± 17.44 min | time to sleep [1, 4]: 3.39 ± 1.71 min | duration of sleep [1, 5]: 74.82 ± 22.78 min | time to sleep [1, 5]: 3.26 ± 1.47 min | duration of sleep [1, 6]: 89.01 ± 18.25 min | time to sleep [1, 6]: 2.23 ± 1.19 min | Times of activities in 1 h after drug administration/10 min ([2]; 25 mg/kg): 265.2 ± 50.1 /10 min | Times of activities in 2 h after drug administration/10 min ([2]; 25 mg/kg): 243.2 ± 42.8 /10 min | Times of activities in 24 h after drug administration/10 min ([2]; 25 mg/kg): 292.8 ± 82.1 /10 min | Times of activities in 1 h after drug administration/10 min ([2]; 50 mg/kg): 175.4 ± 50.3 /10 min | Times of activities in 2 h after drug administration/10 min ([2]; 50 mg/kg): 190.2 ± 56.8 /10 min | Times of activities in 24 h after drug administration/10 min ([2]; 50 mg/kg): 295.3 ± 91.3 /10 min | Times of activities in 1 h after drug administration/10 min ([2]; 100 mg/kg): 120.2 ± 39.0 /10 min | Times of activities in 2 h after drug administration/10 min ([2]; 100 mg/kg): 116.3 ± 49.2 /10 min | Times of activities in 24 h after drug administration/10 min ([2]; 100 mg/kg): 283.5 ± 94.0 /10 min | Number of sleeping animals [3, 7]: 6 | rate of sleeping (%) [3, 7]: 60** % | Number of sleeping animals [3, 8]: 8 | rate of sleeping (%) [3, 8]: 80*** % | Number of sleeping animals [3, 9]: 9 | rate of sleeping (%) [3, 9]: 90*** %

N#Cc1cc(-c2cc(=O)c3c(N)cc(F)cc3o2)ccc1O [Example 37]
duration of sleep [1, 4]: 30.27 ± 22.71 min | time to sleep [1, 4]: 4.99 ± 1.97 min | duration of sleep [1, 5]: 40.03 ± 20.58 min | time to sleep [1, 5]: 3.98 ± 1.46 min | duration of sleep [1, 6]: 57.51 ± 25.63 min | time to sleep [1, 6]: 3.88 ± 1.43 min | Times of activities in 1 h after drug administration/10 min ([2]; 25 mg/kg): 321.4 ± 62.4 /10 min | Times of activities in 2 h after drug administration/10 min ([2]; 25 mg/kg): 288.0 ± 38.9 /10 min | Times of activities in 24 h after drug administration/10 min ([2]; 25 mg/kg): 335.3 ± 65.2 /10 min | Times of activities in 1 h after drug administration/10 min ([2]; 50 mg/kg): 279.7 ± 46.3 /10 min | Times of activities in 2 h after drug administration/10 min ([2]; 50 mg/kg): 259.5 ± 46.5 /10 min | Times of activities in 24 h after drug administration/10 min ([2]; 50 mg/kg): 333.8 ± 87.8 /10 min | Times of activities in 1 h after drug administration/10 min ([2]; 100 mg/kg): 277.3 ± 45.7 /10 min | Times of activities in 2 h after drug administration/10 min ([2]; 100 mg/kg): 222.8 ± 43.2 /10 min | Times of activities in 24 h after drug administration/10 min ([2]; 100 mg/kg): 317.8 ± 62.3 /10 min | Number of sleeping animals [3, 7]: 3 | rate of sleeping (%) [3, 7]: 30% | Number of sleeping animals [3, 8]: 6 | rate of sleeping (%) [3, 8]: 60** % | Number of sleeping animals [3, 9]: 7 | rate of sleeping (%) [3, 9]: 70** %

O=c1cc(-c2cc(O)c(Oc3ccccc3)c(CCCCCCCCCCCCCCCCCCCCCl)c2)oc2cc(C#Cc3ccccc3)cc([N+](=O)[O-])c12 [Example 16]
duration of sleep [1, 4]: 25.69 ± 27.26 min | time to sleep [1, 4]: 5.48 ± 2.25 min | duration of sleep [1, 5]: 48.11 ± 25.41 min | time to sleep [1, 5]: 4.21 ± 1.53 min | duration of sleep [1, 6]: 55.62 ± 19.72 min | time to sleep [1, 6]: 3.86 ± 1.45 min | Times of activities in 1 h after drug administration/10 min ([2]; 25 mg/kg): 319.2 ± 55.4 /10 min | Times of activities in 2 h after drug administration/10 min ([2]; 25 mg/kg): 290.6 ± 41.2 /10 min | Times of activities in 24 h after drug administration/10 min ([2]; 25 mg/kg): 313.5 ± 68.2 /10 min | Times of activities in 1 h after drug administration/10 min ([2]; 50 mg/kg): 295.5 ± 41.3 /10 min | Times of activities in 2 h after drug administration/10 min ([2]; 50 mg/kg): 250.4 ± 41.4 /10 min | Times of activities in 24 h after drug administration/10 min ([2]; 50 mg/kg): 314.1 ± 82.3 /10 min | Times of activities in 1 h after drug administration/10 min ([2]; 100 mg/kg): 273.4 ± 48.3 /10 min | Times of activities in 2 h after drug administration/10 min ([2]; 100 mg/kg): 224.7 ± 46.3 /10 min | Times of activities in 24 h after drug administration/10 min ([2]; 100 mg/kg): 324.7 ± 79.7 /10 min | Number of sleeping animals [3, 7]: 2 | rate of sleeping (%) [3, 7]: 20% | Number of sleeping animals [3, 8]: 4 | rate of sleeping (%) [3, 8]: 40* % | Number of sleeping animals [3, 9]: 6 | rate of sleeping (%) [3, 9]: 60** %

COc1ccc(O)cc1-c1cc(=O)c2c(O)cc(OC)c(OC)c2o1 [Example 12, 5,5′-dihydroxyl-7,8,2′-trimethoxyl-flavone]
duration of sleep [1, 4]: 22.71 ± 26.17 min | time to sleep [1, 4]: 5.43 ± 2.05 min | duration of sleep [1, 5]: 28.68 ± 27.56 min | time to sleep [1, 5]: 5.01 ± 2.00 min | duration of sleep [1, 6]: 38.55 ± 23.27 min | time to sleep [1, 6]: 4.25 ± 1.16 min | Times of activities in 1 h after drug administration/10 min ([2]; 25 mg/kg): 255.9 ± 39.8 /10 min | Times of activities in 2 h after drug administration/10 min ([2]; 25 mg/kg): 284.2 ± 41.7 /10 min | Times of activities in 24 h after drug administration/10 min ([2]; 25 mg/kg): 303.1 ± 69.1 /10 min | Times of activities in 1 h after drug administration/10 min ([2]; 50 mg/kg): 179.5 ± 51.4 /10 min | Times of activities in 2 h after drug administration/10 min ([2]; 50 mg/kg): 168.5 ± 54.3 /10 min | Times of activities in 24 h after drug administration/10 min ([2]; 50 mg/kg): 317.9 ± 55.3 /10 min | Times of activities in 1 h after drug administration/10 min ([2]; 100 mg/kg): 153.7 ± 48.4 /10 min | Times of activities in 2 h after drug administration/10 min ([2]; 100 mg/kg): 135.9 ± 48.7 /10 min | Times of activities in 24 h after drug administration/10 min ([2]; 100 mg/kg): 302.1 ± 89.0 /10 min | Number of sleeping animals [3, 7]: 5 | rate of sleeping (%) [3, 7]: 50** % | Number of sleeping animals [3, 8]: 8 | rate of sleeping (%) [3, 8]: 80*** % | Number of sleeping animals [3, 9]: 8 | rate of sleeping (%) [3, 9]: 80*** %

N#CSc1ccc(-c2cc(=O)c3cc(N)c(F)c(C#N)c3o2)cc1O [Example 28]
duration of sleep [1, 4]: 27.68 ± 23.55 min | time to sleep [1, 4]: 5.48 ± 2.25 min | duration of sleep [1, 5]: 46.89 ± 23.61 min | time to sleep [1, 5]: 4.31 ± 1.19 min | duration of sleep [1, 6]: 55.49 ± 21.02 min | time to sleep [1, 6]: 3.93 ± 2.45 min | Times of activities in 1 h after drug administration/10 min ([2]; 25 mg/kg): 289.8 ± 50.1 /10 min | Times of activities in 2 h after drug administration/10 min ([2]; 25 mg/kg): 278.3 ± 42.9 /10 min | Times of activities in 24 h after drug administration/10 min ([2]; 25 mg/kg): 315.2 ± 76.3 /10 min | Times of activities in 1 h after drug administration/10 min ([2]; 50 mg/kg): 248.9 ± 61.1 /10 min | Times of activities in 2 h after drug administration/10 min ([2]; 50 mg/kg): 260.8 ± 58.1 /10 min | Times of activities in 24 h after drug administration/10 min ([2]; 50 mg/kg): 327.5 ± 80.7 /10 min | Times of activities in 1 h after drug administration/10 min ([2]; 100 mg/kg): 144.2 ± 32.5 /10 min | Times of activities in 2 h after drug administration/10 min ([2]; 100 mg/kg): 237.5 ± 44.3 /10 min | Times of activities in 24 h after drug administration/10 min ([2]; 100 mg/kg): 308.7 ± 84.7 /10 min | Number of sleeping animals [3, 7]: 3 | rate of sleeping (%) [3, 7]: 30% | Number of sleeping animals [3, 8]: 5 | rate of sleeping (%) [3, 8]: 50** % | Number of sleeping animals [3, 9]: 6 | rate of sleeping (%) [3, 9]: 60** %
